Results: US20130184273A1, “BICYCLIC PYRIMIDINES” (Bayer Intellectual Property GmbH, priority 2010, published 2013)

Assays:
[1] = tested on: KPL-4 breast cancer cell line; experiment: Tumor cell proliferation assay (CellTiter-Glo); type: cell-based; settings: KPL4, 72 h drug exposure
Method: Compounds were tested in a cell-based assay that measures the capacity of the compounds to inhibit tumour cell proliferation following a 72 h drug exposure. Cell viability is determined using CellTiter-Glow® (CTG, Promega, cat #G7571/2/3). The CellTiter-Glo® Luminescent Cell Viability Assay is a homogeneous method to determine the number of viable cells in culture. Detection is based on using the luciferase reaction to measure the amount of ATP from viable cells. The amount of ATP in cells correlates with cell viability. Within minutes after a loss of membrane integrity, cells lose the ability to synthesize ATP, and endogenous ATPases destroy any remaining ATP; thus the levels of ATP fall precipitously.
Cells were plated at 3000-5000 cells/well (depending on the cell lines) in 90 μL growth medium on MTPs (Corning; #3603, black plate, clear flat bottom). For each cell line assayed, cells were plated onto a separate plate for determination of […] at t=0 hour and t=72 hour time points. Following overnight incubation at 37° C., chemiluminescence values for the t=0 samples were determined after adding 10 μl medium and 100 μl CTG solution according to manufacture protocol. Plates for the t=72 hour time points were treated with compounds diluted into growth medium at ten times final concentration added in 10 μL to the cell culture plate. Cells were then incubated for 72 hours at 37° C. Chemiluminescence values for the t=72 hour samples were determined. […] Experiments were controlled using a reference compound as standard.

[2] = molecular target: T1, His-tagged human recombinant kinase full-length Akt2 (Homo sapiens, UniProt P31751); experiment: Akt2 kinase assay (TR-FRET); type: biochemical; settings: 10 μM ATP, 60 min at 22° C., read-out: Akt2, median IC50
T1 construct: His-tagged human recombinant kinase full-length Akt2; His; purchased Invitrogen PV 3975; host or cells: insect cells
T1 sequence (P31751 whole entry): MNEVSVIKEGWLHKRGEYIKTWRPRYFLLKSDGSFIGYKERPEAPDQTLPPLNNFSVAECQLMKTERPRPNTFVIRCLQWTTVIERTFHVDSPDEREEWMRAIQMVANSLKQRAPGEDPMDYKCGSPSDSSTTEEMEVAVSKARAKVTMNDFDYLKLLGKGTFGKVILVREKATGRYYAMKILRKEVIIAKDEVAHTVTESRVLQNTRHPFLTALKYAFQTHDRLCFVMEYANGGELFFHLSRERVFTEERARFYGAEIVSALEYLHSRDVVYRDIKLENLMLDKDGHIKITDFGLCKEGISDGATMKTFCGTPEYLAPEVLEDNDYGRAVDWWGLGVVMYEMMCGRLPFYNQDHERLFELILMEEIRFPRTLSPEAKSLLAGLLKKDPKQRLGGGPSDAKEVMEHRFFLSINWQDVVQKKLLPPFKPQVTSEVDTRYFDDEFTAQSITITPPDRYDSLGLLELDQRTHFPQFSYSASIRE
Description: Akt2 inhibitory activity of compounds of the present invention was quantified employing the Akt2 TR-FRET assay as described in the following paragraphs.
(§1) His-tagged human recombinant kinase full-length Akt2 expressed in insect cells and activated by PDK1 was purchased form Invitrogen (part number PV 3975). As substrate for the kinase reaction the biotinylated peptide biotin-Ahx-KKLNRTLSFAEPG (C-terminus in amide form) was used which can be purchased e.g. from the company Biosynthan GmbH (Berlin-Buch, Germany).
(§2) For the assay 50 nl of a 100 fold concentrated solution of the test compound in DMSO was pipetted into a black low volume 384well microtiter plate (Greiner Bio-One, Frickenhausen, Germany), 2 μl of a solution of Akt2 in assay buffer [50 mM TRIS/HCl pH 7.5, 5 mM MgCl2, 1 mM dithiothreitol, 0.02% (v/v) Triton X-100 (Sigma)] were added and the mixture was incubated for 15 min at 22° C. to allow pre-binding of the test compounds to the enzyme before the start of the kinase reaction. Then the kinase reaction was started by the addition of 3 μl of a solution of adenosine-tri-phosphate (ATP, 16.7 μM=>final conc. in the 5 μl assay volume is 10 μM) and substrate (1.67 μM=>final conc. in the 5 μl assay volume is 1 μM) in assay buffer and the resulting mixture was incubated for a reaction time of 60 min at 22° C. The concentration of Akt2 in the assay was adjusted depending of the activity of the enzyme lot and was chosen appropriate to have the assay in the linear range, typical enzyme concentrations were in the range of about 0.2 ng/μl (final conc. in the 5 μl assay volume).
The reaction was stopped by the addition of 5 μl of a solution of HTRF detection reagents (200 nM streptavidine-XL665 [Cisbio] and 1.5 nM anti-phosho-Serine antibody [Millipore, cat. #35-001] and 0.75 nM LANCE Eu-W 1024 labeled anti-mouse IgG antibody [Perkin Elmer]) in an aqueous EDTA-solution (100 mM EDTA, 0.1% (w/v) bovine serum albumin in 50 mM HEPES/NaOH pH 7.5).
The resulting mixture was incubated 1 h at 22° C. to allow the binding of the biotinylated phosphorylated peptide to the streptavidine-XL665 and the antibodies.
Subsequently the amount of phosphorylated substrate was evaluated by measurement of the resonance energy transfer from the anti-mouse-IgG-Eu-Chelate to the streptavidine-XL665. Therefore, the fluorescence emissions at 620 nm and 665 nm after excitation at 350 nm was measured in a TR-FRET reader, e.g. a Rubystar (BMG Labtechnologies, Offenburg, Germany) or a Viewlux (Perkin-Elmer). The ratio of the emissions at 665 nm and at […] was taken as the measure for the amount of phosphorylated substrate. The data were normalised (enzyme reaction without inhibitor=0% inhibition, all other assay components but no enzyme=100% inhibition).

[3] = molecular target: T2, His-tagged human recombinant kinase full-length Akt1 (Homo sapiens, UniProt P31749); experiment: Akt1 kinase assay (TR-FRET); type: biochemical; settings: 10 μM ATP, 60 min at 22° C., read-out: Akt1, median IC50
T2 construct: His-tagged human recombinant kinase full-length Akt1; His; purchased Invitrogen PV 3599; host or cells: insect cells
T2 sequence (P31749 whole entry): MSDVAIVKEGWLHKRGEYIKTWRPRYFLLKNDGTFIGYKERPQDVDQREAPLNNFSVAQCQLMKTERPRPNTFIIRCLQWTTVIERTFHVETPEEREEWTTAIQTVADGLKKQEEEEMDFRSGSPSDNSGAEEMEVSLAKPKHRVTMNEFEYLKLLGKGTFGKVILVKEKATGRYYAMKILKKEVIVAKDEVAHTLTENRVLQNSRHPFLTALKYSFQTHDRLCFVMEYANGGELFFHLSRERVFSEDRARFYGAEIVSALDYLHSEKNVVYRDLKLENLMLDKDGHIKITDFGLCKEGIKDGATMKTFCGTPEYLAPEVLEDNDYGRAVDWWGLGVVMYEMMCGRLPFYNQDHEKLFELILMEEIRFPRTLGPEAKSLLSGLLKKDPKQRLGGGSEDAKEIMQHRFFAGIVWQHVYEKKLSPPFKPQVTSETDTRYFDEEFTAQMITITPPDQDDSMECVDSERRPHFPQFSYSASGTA
Description: Akt1 inhibitory activity of compounds of the present invention was quantified employing the Akt1 TR-FRET assay as described in the following paragraphs.
as §1, with “Akt1” for “Akt2”, “cells” for “cells and activated by PDK1”, “3599).” for “3975).”
as §2, with “Akt1” for “Akt2”, “0.05” for “0.2”
The reaction was stopped by the addition of 5 μl of a solution of HTRF detection reagents (200 nM streptavidine-XL665 [Cisbio] and 1.5 nM anti-phosho-Serine antibody [Millipore, cat. #35-001] and 0.75 nM LANCE Eu-W 1024 labeled anti-mouse IgG antibody [Perkin Elmer]) in an aqueous EDTA-solution (100 mM EDTA, 0.1% (w/v) bovine serum albumin in 50 mM HEPES/NaOH pH 7.5). The resulting mixture was incubated 1 h at 22° C. to allow the binding of the biotinylated phosphorylated peptide to the streptavidine-XL665 and the antibodies. Subsequently the amount of phosphorylated substrate was evaluated by measurement of the resonance energy transfer from the anti-mouse-IgG-Eu-Chelate to the streptavidine-XL665. Therefore, the fluorescence emissions at 620 nm and 665 nm after excitation at 350 nm was measured in a HTRF reader, e.g. a Rubystar (BMG Labtechnologies, Offenburg, Germany) or a Viewlux (Perkin-Elmer). The ratio of the emissions at 665 nm and at […] was taken as the measure for the amount of phosphorylated substrate. The data were normalised (enzyme reaction without inhibitor=0% inhibition, all other assay components but no enzyme=100% inhibition).

| Compound | IC50 [1] [nM] | IC50 [2] [nM] | IC50 [3] [nM] |
| --- | --- | --- | --- |
| NC1(c2ccc(-c3nc4nc(C5CC5)nn4cc3-c3ccccc3)cc2)CCC1 [Example 1-4, 1-[4-(2-cyclopropyl-6-phenyl-[1,2,4]triazolo[1,5-a]pyrimidin-5-yl)-phenyl]-cyclobutylamine] | 1410 | 408 | 755 |
| Cc1cn2c(NC3CC3)c(-c3ccccc3)c(-c3ccc(C4(N)CCC4)cc3)nc2n1 [Example 2-5, {7-[4-(1-Amino-cyclobutyl)-phenyl]-2-methyl-6-phenyl-imidazo[1,2-a]pyrimidin-5-yl)-cyclopropylamine] | 3620 | 540 | – |
| CC(C)(C)Nc1c(-c2ccccc2)c(-c2ccc(C3(N)CCC3)cc2)nc2nc(-c3ccccn3)nn12 [Example 3-0, {5-[4-(1-Aminocyclobutyl)-phenyl]-6-phenyl-2-pyridine-2-yl-[1,2,4]triazolo[1,5-a]pyrimidin-7-yl}-tert.-butylamine] | 1740 | 61 | 1130 |
| NC1(c2ccc(-c3nc4nc(-c5ccccn5)nn4c(NC4CC4)c3-c3ccccc3)cc2)CCC1 [Example 3-1, {5-[4-(1-Aminocyclobutyl)-phenyl]-6-phenyl-2-pyridine-2-yl-[1,2,4]triazolo[1,5-a]pyrimidin-7-yl}-cyclopropylamine] | – | 2320 | 2380 |
| Cc1nc2nc(-c3ccc(C4(N)CCC4)cc3)c(-c3ccccc3)c(NCCc3ccc(F)cc3)n2n1 [Example 3-5, {5-[4-(1-Amino-cyclobutyl)-phenyl]-2-methyl-6-phenyl-[1,2,4]triazolo[1,5-a]pyrimidin-7-yl}-[2-(4-fluoro-phenyl)-ethyl]-amine] | – | 3560 | 18800 |
| CCOC(=O)C1(Nc2c(-c3ccccc3)c(-c3ccc(C4(N)CCC4)cc3)nc3nc(C)nn23)CCC1 [Example 3-3, 1-{5-[4-(1-Aminocyclobutyl)-phenyl]-2-methyl-6-phenyl-[1,2,4]triazolo[1,5-a]pyrimidin-7-ylamino}-cyclobutanecarboxylic acid ethyl ester] | – | 1120 | ≥ 20000 |

Continued, values first:

| IC50 [1] [nM] | IC50 [2] [nM] | IC50 [3] [nM] | Compound |
| --- | --- | --- | --- |
| 2170 | 381 | 527 | CNc1nc2nc(-c3ccc(C4(N)CCC4)cc3)c(-c3ccccc3)cn2n1 [Example 5-3, {5-[4-(1-amino-cyclobutyl)-phenyl]-6-phenyl-[1,2,4]triazolo[1,5-a]pyrimidin-2-yl}-methyl-amine] |
| 6190 | 197 | 283 | NC1(c2ccc(-c3nc4nc(Nc5ccccc5)nn4cc3-c3ccccc3)cc2)CCC1 [Example 5-4, {5-[4-(1-Amino-cyclobutyl)-phenyl]-6-phenyl-[1,2,4]triazolo[1,5-a]pyrimidin-2-yl}-phenyl-amine] |
| – | 904 | 1850 | Cc1nc2nc(-c3ccc(C4(N)CCC4)cc3)c(-c3ccccc3)c(NC3CC3)n2n1 [Example 5-12, {5-[4-(1-amino-cyclobutyl)-phenyl]-2-methyl-6-phenyl-[1,2,4]triazolo[1,5-a]pyrimidin-7-yl}-cyclopropyl-amine] |
| 3640 | 303 | 731 | Cc1nc2nc(-c3ccc(C4(N)CCC4)cc3)c(-c3ccccc3)c(NC3CCC3)n2n1 [Example 5-8, {5-[4-(1-amino-cyclobutyl)-phenyl]-2-methyl-6-phenyl-[1,2,4]triazolo[1,5-a]pyrimidin-7-yl}-cyclobutyl-amine] |
| – | 2320 | 3250 | COCCNc1c(-c2ccccc2)c(-c2ccc(C3(N)CCC3)cc2)nc2nc(C)nn12 [Example 5-14, {5-[4-(1-amino-cyclobutyl)-phenyl]-2-methyl-6-phenyl-[1,2,4]triazolo[1,5-a]pyrimidin-7-yl}-(2-methoxy-ethyl)-amine] |
| 2200 | 234 | 1470 | CC(C)Nc1nc2nc(-c3ccc(C4(N)CCC4)cc3)c(-c3ccccc3)cn2n1 [Example 5-5, {5-[4-(1-amino-cyclobutyl)-phenyl]-6-phenyl-[1,2,4]triazolo[1,5-a]pyrimidin-2-yl}-isopropyl-amine] |
